From US4598066A, “Antimycoplasmal agent for animals and method of use for prevention and treatment of mycoplasmosis” (Fujisawa Pharmaceutical Co., Ltd., priority 1982, dated 1986) come the findings set out here.

The assay has as its system Mycoplasma gallisepticum 1RF. The assay can be described thus: Test 5: Mycoplasma gallisepticum 1RF intranasal infection in chickens, Compound 1 and tylosin alone and combined. In kind it is in vivo, chicken. Conditions: single oral dose 100 mg/kg 1 hr after intranasal infection; 20 days after infection (group C). Here is the method:
Mycoplasma: Mycoplasma gallisepticum 1RF supplied from the National Institute of Animal Health, Ibaraki prefecture, Japan was used.
Chickens used: Broiler males (Chunky), purchased as day-old chickens from a commercial flock free of Mycoplasma gallisepticum agglutinins, were maintained under isolation in an electrically heated battery brooder. When birds reached 7 to 8 days of age, they were used for test.
Infection of mycoplasma: Mycoplasma gallisepticum 1RF was cultured in PPLO liquid medium (Difco) for 3 to 4 days at 37° C. until the colour of broth changed from red to yellowish organge. An aliquot of the culture (10^7 -10^8 cfu/ml) was used for infection.
Intranasal infections were produced by dropping 0.05 ml of the culture into the nasal cavity of chickens.
Recovery of mycoplasma: Twenty to 21 days after infection, the chickens were killed and recovery of mycoplasma was examined from the trachea, air-sac, and tibia-metatarsus joints.
Recovered organisms were identified as Mycoplasma gallisepticum after examining glucose fermentation, colonies, and haemadsorption test.
Inhibition(%) of infection: Average recovery percentage of Mycoplasma gallisepticum from trachea, air-sac, and tibia-metatarsus joints was measured infected medicated, and infected non-medicated chickens.
Inhibition(%) was calculated as follows: [formula] […]

On to `CC[C@H]1OC(=O)C[C@@H](O)[C@H](C)[C@@H](O[C@@H]2O[C@H](C)[C@@H](O[C@H]3C[C@@](C)(O)[C@@H](O)[C@H](C)O3)[C@H](N(C)C)[C@H]2O)[C@@H](CC=O)C[C@@H](C)C(=O)/C=C/C(C)=C/[C@@H]1CO[C@@H]1O[C@H](C)[C@@H](O)[C@@H](OC)[C@H]1OC` [Tylosin, tylosin], for which the “Inhibition (%) of infection” value is recorded as 17%.
